This is an account of results in article PMC9793460, “Food effect risk assessment in preformulation stage using material sparing μFLUX methodology” (ADMET & DMPK, 2022).

For series [1] the following is noted: cited from earlier work; for FE (food effect observed in clinic): assigned from AUC and Cmax ratios of published clinical data; for Observed AUC Ratio (Fed/Fasted) / Observed Cmax Ratio (Fed/Fasted): ratio of geometric means fed/fasted, published clinical data.
Series [2] can be described thus: μFLUX dissolution/flux test, FaSSIF or FeSSIF donor, acceptor sink buffer receiver. Particulars: for Flux Fa (±SD; n=3) / Flux Fe (±SD; n=3): unformulated powder, initial flux excluding lag time, 37 °C; for Flux Ratios (Fed/Fasted): FeSSIF/FaSSIF; for Food effect indicated by flux ratio: prediction from FeSSIF/FaSSIF flux ratio. The class given is in vitro ADME. The procedure:
Dissolution/flux tests were performed using a μFLUX apparatus (Pion Inc., Billerica, MA, USA) with 4 side-by-side donor-receiver chambers separated by a lipophilic barrier. Prior to the assay, the artificial GIT-mimicking membrane was prepared by impregnating a PVDF filter support material (polyvinylidenfluoride, 1.54 cm^2 open area, 0.45 μm pore size, 120 μm thickness, 70 % nominal porosity) with 25 μL of 20 % lecithin in dodecane lipid solution (GIT Lipid, Pion Inc., Billerica, MA, USA). The donor chambers were then filled with 20 ml of biorelevant media (FaSSIF or FeSSIF) while the receiver compartments were filled with 20 ml of acceptor sink buffer (ASB, Pion Inc., Billerica, MA, USA). The ASB is a HEPES (4-(2-hydroxyethyl)-1-piperazineethanesulfonic acid) based pH 7.4 buffer containing chemical scavengers (surfactants micelles) that allow to maintain sink conditions during the experiments. The composition of the membrane and the receiver solution are identical to the Double-Sink PAMPA model, a non-cell-based method predicting of passive transcellular intestinal absorption. The temperature in both chambers was maintained at 37 °C and the media were stirred at 100 rpm.
Model compounds were added at the start of the experiment in the donor chambers as unformulated powder at a solid load equivalent to the lowest marketed dose normalized to 250 mL stomach volume. In some cases, to counter for experimental limitation due to low signal detection or high turbidity, a higher or lower dose was selected.
Standards for each model compound were prepared by sequential addition of a stock solution of pure API pre-dissolved in organic solvents (either methanol or DMSO) to the corresponding medium. The area under the 2nd derivative spectra curves was used to calculate the concentrations. The wavelength range was selected individually for each compound in the way to avoid sensitivity issues. […] The drug concentration in the donor and receiver chambers was calculated from the UV absorbance of the samples using the corresponding standard curve. For samples with low permeability, an additional μFLUX donor-receiver pair containing described reagents except API was included in parallels and used as a corrective “blank” at the corresponding time point to ensure that the UV signal of API could be differentiated from the spectral noise of the biorelevant media. Concentration-time profiles were monitored over at least 180 min, in triplicate for each drug unless otherwise mentioned.
The flux (J) across the membrane representing the amount (m) of material crossing one unit area (A) of the membrane per unit time (t), was calculated from the concentration-time profiles in the receiver compartments:
A is the area of the membrane (1.54 cm^2), V is the volume of the receiver compartment (20 mL) and dc/dt (μg mL^-1 min^-1) is the slope of the concentration time profile of the drug in the receiver compartment.
The flux values were calculated by fitting the concentration-time profile in the receivers to a straight line to determine the slope and then normalizing the slope to the volume and surface area of the membrane following equation (1). Time intervals to calculate the flux were selected based on the apparent linearity of the concentration-time profile in the receivers, capturing the initial flux process and excluding the lag time unless otherwise is stated.

The conditions of series [3]: cited from earlier work; for Solubility FeSSIF (pH 5.0) / Solubility FaSSIF (pH 6.5): some values determined in the authors' lab (not marked).
A short description of series [4]: Solubility in biorelevant media (FaSSIF / FeSSIF). The format is physicochemical. The following applies: for Solubility ratio (Fed/Fasted): FeSSIF/FaSSIF, calculated from Table 2 solubilities; for Food effect indicated by solubility ratio: prediction from FeSSIF/FaSSIF solubility ratio. The procedure: Solubility measurements were performed by adding an excess amount of drug into FaSSIF or FeSSIF media in a glass vial. […] After equilibration, samples were centrifuged/filtered using NANOSEP with 0.2 μm Bio-inert centrifugal devices (PAL Corporation). The filtrate was immediately diluted accordingly into acetonitrile/water 50/50 and analyzed by HPLC.
Model drugs categorized as BCS I - IV classes were selected. The drugs included mono- and diprotic acids and bases as well as non-ionizable compounds. […] The physicochemical properties of the model compounds, pKa, log P [18, 19] and solubility in biorelevant media [[20-26]] were collected from the literature and are depicted in Table 2.

For series [5] the following is noted: cited from earlier work; for pKa: experimental, higher pKa where two are given; for Type: ionization type.
The conditions of series [6]: experimental; cited from earlier work.
Series [7] in a line: μFLUX dissolution/flux test, FaSSIF or FeSSIF donor, acceptor sink buffer receiver. Particulars: 0.4 mg/mL. The format is in vitro ADME.

Structures can show the parent of a compound that is named as a salt. Where two headings read alike, the source gives them in different places. Marks after values point to notes of the source that are not given here. A value given as a limit tells only on which side of the number the result lay.

In the case of `CCCCc1oc2ccccc2c1C(=O)c1cc(I)c(OCCN(CC)CC)c(I)c1` [Amiodarone, Amiodarone hydrochloride], the “FE (food effect observed in clinic)” value in series [1] was “positive food effect”. Besides, the “Flux Fa (±SD; n=3), early” value in series [2] (FaSSIF donor, early flux, first 2 hours excluding lag time) was 0.017± 0.003. In addition, the “Flux Fa (±SD; n=3), late” value in series [2] (FaSSIF donor, late flux, 2.5-9 hours interval) is on record as 0.579 ± 0.095. Moreover, in series [2] (FeSSIF donor, early flux, first 2 hours excluding lag time), the “Flux Fe (±SD; n=3), early” value was 0.073 ± 0.001. For the same molecule, the “Flux Fe (±SD; n=3), late” value in series [2] (FeSSIF donor, late flux, 2.5-9 hours interval) is 1.277± 0.109.

Regarding `Cc1ccc(-c2cc(C(F)(F)F)nn2-c2ccc(S(N)(=O)=O)cc2)cc1` [Celecoxib, celecoxib], in series [3], the “Solubility FeSSIF (pH 5.0)” value is 103.3 μg/mL. Moreover, in series [4], the “Solubility ratio (Fed/Fasted)” value is on record as 2.24 and the “Food effect indicated by solubility ratio” value is given as “positive food effect”. Moreover, in series [1], the “FE (food effect observed in clinic)” value is reported as “positive”, the “Observed AUC Ratio (Fed/Fasted)” value is 1.19 and the “Observed Cmax Ratio (Fed/Fasted)” value was 1.29. Besides, the “FE (food effect observed in clinic)” value in series [1] (listed as celecoxib) was “positive food effect”. The pKa in series [5] is recorded as 9.38 ± 0.08^a. For the same molecule, the “Flux Fa (±SD; n=3)” value in series [2] (FaSSIF donor) is 0.186 ± 0.021. In series [2] (FeSSIF donor), the “Flux Fe (±SD; n=3)” value was 0.632 ± 0.077. Moreover, in series [2], the “Flux Ratios (Fed/Fasted)” value was 3.4 and the “Food effect indicated by flux ratio” value is recorded as “positive food effect”.

For the molecule `COC(=O)[C@H](c1ccccc1Cl)N1CCc2sccc2C1` [Clopidogrel bisulfate, clopidogrel bisulfate], in series [3], the “Solubility FaSSIF (pH 6.5)” value is reported as 130 μg/mL and the “Solubility FeSSIF (pH 5.0)” value is recorded as 500 μg/mL. Besides, in series [4], the “Solubility ratio (Fed/Fasted)” value was 3.85 and the “Food effect indicated by solubility ratio” value is “positive food effect”. For the same molecule, in series [1], the “FE (food effect observed in clinic)” value is given as “none”, the “Observed AUC Ratio (Fed/Fasted)” value is 1.02 and the “Observed Cmax Ratio (Fed/Fasted)” value is given as 0.79. The “FE (food effect observed in clinic)” value in series [1] (listed as clopidogrel bisulfate) is on record as “no food effect”. Also, the “Flux Fa (±SD; n=3)” value in series [2] (FaSSIF donor) came to 1.751 ± 0.540. Besides, in series [2] (FeSSIF donor), the “Flux Fe (±SD; n=3)” value turned out to be 2.168 ± 0.323. In series [2], the “Flux Ratios (Fed/Fasted)” value is given as 1.24 and the “Food effect indicated by flux ratio” value is “no food effect”.

As for `C#C[C@]1(O)CC[C@H]2[C@@H]3CCC4=Cc5oncc5C[C@]4(C)[C@H]3CC[C@@]21C` [Danazol, danazol], in series [5], the Type entry is recorded as “N”.

`CNCCC(Oc1ccc(C(F)(F)F)cc1)c1ccccc1` (centres unmarked) [Fluoxetine HCl, fluoxetine hydrochloride]: the “FE (food effect observed in clinic)” value in series [1] is recorded as “none”; in series [1] (listed as FXT), “not influenced by presence or absence of food”.

In the case of `NS(=O)(=O)c1cc(C(=O)O)c(NCc2ccco2)cc1Cl` [Furosemide, furosemide], the “FE (food effect observed in clinic)” value in series [1] is reported as “negative”; in series [1] (listed as furosemide) it was “negative food effect”. In series [5] (pH 5.0, species distribution curve), the “fraction of drug deprotonated” value is on record as ~ 97%. In addition, the “Flux Fa (±SD; n=3)” value in series [2] (FaSSIF donor) turned out to be 0.018 ± 0.003. The “Flux Fe (±SD; n=3)” value in series [2] (FeSSIF donor) stood at 0.208 ± 0.036.

The log P is a log measure of how a compound divides between an organic and an aqueous phase. `COC1=CC(=O)C[C@@H](C)[C@]12Oc1c(Cl)c(OC)cc(OC)c1C2=O` [Griseofulvin]: in series [3], the “Solubility FaSSIF (pH 6.5)” value is 23.4 μg/mL and the “Solubility FeSSIF (pH 5.0)” value is 29.2 μg/mL. In series [6], the log partition coefficient (log P) is on record as 2.2. Besides, the Type entry in series [5] was “N”. Also, the “Flux Fa (±SD; n=3)” value in series [2] (FaSSIF donor) amounted to 0.205 ± 0.011. For the same molecule, the “Flux Fe (±SD; n=3)” value in series [2] (FeSSIF donor) was 0.218 ± 0.009.

Consider `NNC(=O)c1ccncc1` [Isoniazid, isoniazid], for which, in series [3], the “Solubility FaSSIF (pH 6.5)” value is > 60,000 μg/mL and the “Solubility FeSSIF (pH 5.0)” value is recorded as > 60,000 μg/mL. Also, in series [3] (FaSSIF), the “Solubility in FaSSIF” value is given as more than 60 mg/mL. For the same molecule, in series [3] (FeSSIF), the “Solubility in FeSSIF” value is listed as more than 60 mg/mL. In addition, in series [1], the “FE (food effect observed in clinic)” value is listed as “negative food effect”, the “Observed AUC Ratio (Fed/Fasted)” value is on record as 0.88 and the “Observed Cmax Ratio (Fed/Fasted)” value was 0.49. In series [2] (FaSSIF donor), the “Flux Fa (±SD; n=3)” value is 0.020 ± 0. Moreover, in series [2] (FeSSIF donor), the “Flux Fe (±SD; n=3)” value is 0.020 ± 0.

For the molecule `CCc1nn(CCCN2CCN(c3cccc(Cl)c3)CC2)c(=O)n1CCOc1ccccc1` [Nefazodone HCl, nefazodone hydrochloride], in series [3], the “Solubility FaSSIF (pH 6.5)” value is given as 252 μg/mL and the “Solubility FeSSIF (pH 5.0)” value is listed as 383 μg/mL. In series [4], the “Solubility ratio (Fed/Fasted)” value is 1.52 and the “Food effect indicated by solubility ratio” value was “positive food effect”. The “Flux Fa (±SD; n=3), suspension” value in series [7] (FaSSIF donor, sample introduced as slurry of DS in the medium) came to 2.610 ± 0.618. For the same molecule, the “Flux Fe (±SD; n=3), suspension” value in series [7] (FeSSIF donor, sample introduced as slurry of DS in the medium) turned out to be 1.923 ± 0.547. In addition, the “Flux Ratios (Fed/Fasted), suspension” value in series [7] (FeSSIF/FaSSIF, sample introduced as slurry) came to 0.74. In series [1], the “FE (food effect observed in clinic)” value was “negative food effect”, the “Observed AUC Ratio (Fed/Fasted)” value is 0.78 and the “Observed Cmax Ratio (Fed/Fasted)” value is 0.93. In addition, the “Flux Fa (±SD; n=3)” value in series [2] (FaSSIF donor) was 0.521 ± 0.179. Besides, in series [2] (FeSSIF donor), the “Flux Fe (±SD; n=3)” value was 1.077 ± 0.084. In series [2], the “Flux Ratios (Fed/Fasted)” value is on record as 2.07 and the “Food effect indicated by flux ratio” value is on record as “negative food effect”.

Turning to `Cc1cn([C@H]2C[C@H](N=[N+]=[N-])[C@@H](CO)O2)c(=O)[nH]c1=O` [Zidovudine, zidovudine], in series [6], the “log P” value is on record as 0.13. Moreover, in series [1], the “FE (food effect observed in clinic)” value was “negative food effect”. Further, in series [5], the pKa is recorded as 9.40 ± 0.01^a. For the same molecule, the “Flux Fa (±SD; n=3)” value in series [2] (FaSSIF donor) worked out at 0.037 ± 0.007. In addition, the “Flux Fe (±SD; n=3)” value in series [2] (FeSSIF donor) is recorded as 0.034 ± 0.002.
